This is an account of results in patent US9156811B2 (priority 2008, dated 2015).

The structures appear in SMILES notation. Like-named read-outs stand apart in the source and are kept apart here.

The subject of assay [1] is Trypanosome (T. brucei brucei). The assay is described as follows: In-vitro antitrypanosomal efficacy assay (cell growth, resazurin). It counts as cell-based. Conditions: T. brucei cell growth.
Method: To column 12, 200 μl media was added to provide a no cells control. Plates were then incubated at 37° C. in an atmosphere of 5% CO2 for 69 hours, before the addition of 20 μl of 500 μM rezasurin solution, and a further incubation period of 4 hours. […] Concentration effect curves were fitted using non-linear regression using XLFit 4.2 and EC50 values determined.
Assay [2] deals with T. brucei N-myristoyl transferase (Trypanosoma brucei brucei (strain 927/4 GUTat10.1), UniProt Q388H8). The experiment in a line: biochemical. The assay is classed as biochemical. As to conditions: read-out: IC50 (μM) NMT Enzyme.
Where [3] appears, read: value with no enzyme tag in the cell, taken as T. brucei NMT.

Chain of T. brucei N-myristoyl transferase (Q388H8 1-446): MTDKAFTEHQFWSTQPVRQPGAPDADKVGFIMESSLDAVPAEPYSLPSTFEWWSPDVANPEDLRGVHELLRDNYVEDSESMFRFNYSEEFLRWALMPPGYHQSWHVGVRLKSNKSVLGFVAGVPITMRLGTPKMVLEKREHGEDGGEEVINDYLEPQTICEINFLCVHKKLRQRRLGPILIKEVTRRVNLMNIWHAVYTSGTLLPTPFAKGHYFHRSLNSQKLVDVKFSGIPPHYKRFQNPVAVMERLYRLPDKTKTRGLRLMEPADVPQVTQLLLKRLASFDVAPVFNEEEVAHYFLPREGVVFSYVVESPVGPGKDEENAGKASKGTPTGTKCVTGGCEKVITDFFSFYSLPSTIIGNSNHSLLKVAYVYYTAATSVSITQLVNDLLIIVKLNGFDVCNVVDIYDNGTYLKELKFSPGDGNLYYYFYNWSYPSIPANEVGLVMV

Take `COc1cc(C)c([S+](=O)([O-])Nc2ccc(C)nc2C)c(C)c1C` [DDD85634]: the “ED50 (μM) T. brucei” value in assay [1] was over 1 µM. For the same compound, in assay [2] (setting [3]), the half-inhibitory concentration (IC50) is 27.9 µM.
Turning to `Cc1nn(C)c(C)c1N[S+](=O)([O-])c1ccc(CNCCN(C)C)cc1` [DDD85640], in assay [1], the “ED50 (μM) T. brucei” value was over 50 µM. The IC50 in assay [2] (setting [3]) was found to be 3.3 µM.
On to `Cc1nn(C)c(C)c1N[S+](=O)([O-])c1ccc(CNCCN2CCCCC2)cc1` [DDD85643], for which, in assay [1], the “ED50 (μM) T. brucei” value was over 1 µM. The IC50 in assay [2] (setting [3]) was determined as 8 µM.
For the compound `Cc1nn(C)c(C)c1N[S+](=O)([O-])c1ccc(COCCCN(C)C)cc1` [DDD85647], the “ED50 (μM) T. brucei” value in assay [1] was over 1 µM. The IC50 in assay [2] (setting [3]) was determined as 66.1 µM.
As to `Cc1nn(C)c(C)c1N[S+](=O)([O-])c1ccc(COCCCN2CCN(C)CC2)cc1` [DDD85648], the “ED50 (μM) T. brucei” value in assay [1] is over 1 µM. For the same compound, in assay [2] (setting [3]), the IC50 was found to be 47.7 µM.
For the compound `Cc1nn(C)c(C)c1N[S+](=O)([O-])c1ccc(COCCN2CCN(C)CC2)cc1` [DDD85649], in assay [1], the “ED50 (μM) T. brucei” value is over 1 µM. Besides, in assay [2] (setting [3]), the IC50 amounted to 40 µM.
`Cc1nn(C)c(C)c1N[S+](=O)([O-])c1ccc(COCCCCN(C)C)cc1` [DDD85650]: the “ED50 (μM) T. brucei” value in assay [1] is over 1 µM. For the same compound, in assay [2] (setting [3]), the half-inhibitory concentration (IC50) amounted to 52.6 µM.
Consider `Cc1nn(C)c(C)c1N[S+](=O)([O-])c1ccc(NCc2cccc(CN3CCCCC3)c2)nc1` [DDD85651], for which the “ED50 (μM) T. brucei” value in assay [1] came to 9.8 µM. In assay [2] (setting [3]), the half-maximal inhibitory concentration (IC50) amounted to 1.8 µM.
Consider `Cc1nn(C)c(C)c1N[S+](=O)([O-])c1ccc(-c2cccc(C=O)c2)cc1` [DDD86210], for which the “ED50 (μM) T. brucei” value in assay [1] is over 1 µM. Also, in assay [2] (setting [3]), the concentration for half-maximal inhibition (IC50) stood at 6 µM.
In the case of `Cc1nn(C)c(C)c1N[S+](=O)([O-])c1ccc(NCCCN2CCN(c3ccccc3)CC2)nc1` [DDD86291], the “ED50 (μM) T. brucei” value in assay [1] was over 1 µM. Also, the IC50 in assay [2] (setting [3]) was 1 µM.
The matching figures for `Cc1nn(C)c(C)c1NS(=O)(=O)c1c(Cl)cc(-c2ccnc(N3CCC(N(C)C)C3)c2)cc1Cl` (centres unmarked) [DDD86292, 2,6-Dichloro-4-[2-(3-dimethylamino-pyrrolidin-1-yl)-pyridin-4-yl]-N-(1,3,5-trimethyl-1 H-pyrazol-4-yl)-benzenesulfonamide]: over 1 µM and 1 µM.
In the case of `Cc1nn(C)c(C)c1N[S+](=O)([O-])c1ccc(NCCO)nc1` [DDD86293], in assay [1], the “ED50 (μM) T. brucei” value is over 1 µM. Besides, in assay [2] (setting [3]), the IC50 was 1 µM.
The matching figures for `Cc1nn(C)c(C)c1N[S+](=O)([O-])c1ccc(NCCCNC2CCN(Cc3ccccc3)C2)nc1` (centres unmarked) [DDD86295]: over 1 µM and 1 µM.
Turning to `CNCCNc1cc(-c2cc(Cl)c([S+](=O)([O-])Nc3c(C)nn(C)c3C)c(Cl)c2)ccn1` [DDD86297, 2,6-Dichloro-4-[2-(2-methylamino-ethylamino)-pyridin-4-yl]-N-(1,3,6-trimethyl-1H-pyrazol-4-yl)-benzenesulfonamide], the “ED50 (μM) T. brucei” value in assay [1] is over 1 µM. Further, the IC50 in assay [2] (setting [3]) was found to be 1 µM.
In the same order, the values of `Cc1nn(C)c(C)c1N[S+](=O)([O-])c1ccc(NCCN2CCN(C(C)C)CC2)nc1` [DDD86298] are over 1 µM and 1 µM.
For the compound `Cc1nn(C)c(C)c1NS(=O)(=O)c1c(Cl)cc(-c2ccnc(NCCNc3ccccn3)c2)cc1Cl` [DDD86302, 2,6-Dichloro-4-{2-[2-(pyridin-2-ylamino)-ethylamino]pyridin-4-yl}-N-(1,3,5-trimethyl-1 H-pyrazol-4-yl)-benzenesulfonamide], in assay [1], the “ED50 (μM) T. brucei” value was over 1 µM. Besides, in assay [2] (setting [3]), the half-maximal inhibitory concentration (IC50) stood at 1 µM.
The matching figures for `Cc1nn(C)c(C)c1N[S+](=O)([O-])c1ccc(NCCN2CCN(C)CC2c2ccccc2)nc1` (centres unmarked) [DDD86304]: over 1 µM and 1 µM.
In the case of `Cc1nn(C)c(C)c1NS(=O)(=O)c1c(Cl)cc(-c2ccnc(NCCCn3ccnc3)c2)cc1Cl` [DDD86308, 2,6-Dichloro-4-[2-(3-imidazol-1-yl-propylamino)-pyridin-4-yl]-N-(1,3,5-trimethyl-1H-pyrazol-4-yl)-benzenesulfonamide], the “ED50 (μM) T. brucei” value in assay [1] was over 1 µM. The IC50 in assay [2] (setting [3]) was determined as 1 µM.
Take `Cc1nn(C)c(C)c1N[S+](=O)([O-])c1ccc(NCCN2CCN(C(=O)OC(C)(C)C)CC2)nc1` [DDD86310]: in assay [1], the “ED50 (μM) T. brucei” value is over 1 µM. Also, the concentration for half-maximal inhibition (IC50) in assay [2] (setting [3]) amounted to 1 µM.
In the same order, the values of `CC(=O)c1cccc(Nc2ccc([S+](=O)([O-])Nc3c(C)nn(C)c3C)cn2)c1` [DDD86311] are over 1 µM and 1 µM.
The matching figures for `Cc1nn(C)c(C)c1N[S+](=O)([O-])c1c(Cl)cc(C#CCN2CCCCC2)cc1Cl` [DDD86476]: over 1 µM and 5.9 µM.
In the case of `Cc1nn(C)c(C)c1N(CCCO)[S+](=O)([O-])c1ccc(-c2ccnc(N3CCNCC3)c2)cc1` [DDD87755, N-(3-Hydroxy-propyl)-4-(2-piperazin-1-yl-pyridin-4-yl)-N-(1,3,5-trimethyl-1H-pyrazol-4-yl)-benzenesulfonamide], the “ED50 (μM) T. brucei” value in assay [1] stood at 0.98 µM. Further, the concentration for half-maximal inhibition (IC50) in assay [2] (setting [3]) was 0.05 µM.
`Cc1nn(C)c(C)c1NS(=O)(=O)c1ccc(-c2ccnc(N3CCNC(c4ccccc4)C3)c2)cc1` (centres unmarked) [DDD87756, 4-[2-(3-Phenyl-piperazin-1-yl)-pyridin-4-yl]-N-(1,3,5-trimethyl-1H-pyrazol-4-yl)-benzenesulfonamide]: the “ED50 (μM) T. brucei” value in assay [1] is over 1 µM. Further, the half-maximal inhibitory concentration (IC50) in assay [2] is 0.76 µM.
`Cc1nn(C)c(C)c1N[S+](=O)([O-])c1ccc(N2CCC(N3CCN(Cc4ccccc4)CC3)C2)nc1` (centres unmarked) [DDD87760]: the “ED50 (μM) T. brucei” value in assay [1] was over 1 µM. Further, in assay [2] (setting [3]), the IC50 was 34.4 µM.
As for `Cc1nn(C)c(C)c1NS(=O)(=O)c1c(Cl)cc(-c2cccc3c2CCNC3)cc1Cl` [DDD87762], the “ED50 (μM) T. brucei” value in assay [1] is over 1 µM. Besides, the half-inhibitory concentration (IC50) in assay [2] (setting [3]) was 2.6 µM.
For `Cc1nn(C)c(C)c1N[S+](=O)([O-])c1ccc(N2CCC(N3CCNCC3)C2)nc1` (centres unmarked) [DDD88008], the “ED50 (μM) T. brucei” value in assay [1] was 18.0 µM. In addition, the half-inhibitory concentration (IC50) in assay [2] (setting [3]) worked out at 0.11 µM.
In the same order, the values of `Cc1noc(C)c1N[S+](=O)([O-])c1ccc(CCCN2CCN(C)CC2)cc1` [DDD88190] are 31.0 µM and 1.1 µM.
The matching figures for `Cc1c(N[S+](=O)([O-])c2c(Cl)cc(Br)cc2Cl)cnn1C` [DDD88315]: over 10 µM and 20 µM.
In the same order, the values of `Cc1cc(Br)ccc1[S+](=O)([O-])Nc1c(C)nn(C)c1C` [DDD88316] are over 10 µM and 12.7 µM.
`Cc1nn(C)c(C)c1N[S+](=O)([O-])c1ccc(Br)cc1F` [DDD88318]: the “ED50 (μM) T. brucei” value in assay [1] was over 10 µM. The IC50 in assay [2] (setting [3]) came to 10 µM.
For the compound `Cc1ccnc(C)c1N[S+](=O)([O-])c1c(Cl)cc(-c2ccnc(N3CCNCC3)c2)cc1Cl` [DDD88319], the “ED50 (μM) T. brucei” value in assay [1] turned out to be 0.69 µM. The IC50 in assay [2] (setting [3]) was 0.045 µM.
On to `Cc1nn(C)c(C)c1N[S+](=O)([O-])c1c(F)cc(-c2ccnc(N3CCNCC3)c2)cc1F` [DDD88323], for which the “ED50 (μM) T. brucei” value in assay [1] is 0.005 µM. In addition, the IC50 in assay [2] (setting [3]) was determined as 0.004 µM.
`Cc1nn(C)c(C)c1N[S+](=O)([O-])c1ccc(-c2cccc(CN)c2)cc1` [DDD88560]: the “ED50 (μM) T. brucei” value in assay [1] is 2.15 µM. Besides, the IC50 in assay [2] (setting [3]) stood at 0.054 µM.
As to `Cc1nn(C)c(C)c1N[S+](=O)([O-])c1ccc(CCCN2CCN(C)CC2)cc1Cl` [DDD90058], the “ED50 (μM) T. brucei” value in assay [1] came out at 0.20 µM. Moreover, the IC50 in assay [2] (setting [3]) is 0.027 µM.
Consider `Cc1nn(C)c(C)c1N[S+](=O)([O-])c1cc(F)c(CCCN2CCN(C)CC2)cc1F` [DDD90059], for which the “ED50 (μM) T. brucei” value in assay [1] is 0.48 µM. Besides, the half-maximal inhibitory concentration (IC50) in assay [2] (setting [3]) was found to be 0.054 µM.
On to `Cc1c(N[S+](=O)([O-])c2c(Cl)cc(CCCN3CCN(C)CC3)cc2Cl)c(CC(C)C)nn1C` [DDD90060], for which, in assay [1], the “ED50 (μM) T. brucei” value is 0.02 µM. Further, the IC50 in assay [2] (setting [3]) turned out to be 0.006 µM.
In the case of `Cc1nn(C)c(C)c1N[S+](=O)([O-])c1ccc(-c2cccc(CCN(C)C)c2)cc1` [DDD90106], the “ED50 (μM) T. brucei” value in assay [1] was found to be 0.251 µM. For the same compound, the IC50 in assay [2] (setting [3]) is 0.024 µM.
In the case of `Cc1nn(C)c(C)c1N[S+](=O)([O-])c1ccc(-c2cccc(CC3CCN(C)CC3)c2)cc1` [DDD90107], the “ED50 (μM) T. brucei” value in assay [1] is 0.040 µM. In assay [2] (setting [3]), the IC50 amounted to 0.004 µM.
In the case of `Cc1c(N[S+](=O)([O-])c2ccc(CCCN3CCN(C)CC3)cc2)c(CC(C)C)nn1C` [DDD90147], the “ED50 (μM) T. brucei” value in assay [1] is 0.20 µM. In assay [2] (setting [3]), the IC50 is 0.034 µM.
For the compound `Cc1c(N[S+](=O)([O-])c2ccc(-c3cccc(CN4CCN(C)CC4)c3)cc2)c(CC(C)C)nn1C` [DDD99736], the “ED50 (μM) T. brucei” value in assay [1] was found to be 0.41 µM. In assay [2] (setting [3]), the IC50 stood at 0.068 µM.
Consider `Cc1c(N[S+](=O)([O-])c2c(Cl)cc(CCCC3CCN(C)CC3)cc2Cl)c(CC(C)C)nn1C` [DDD99743], for which the “ED50 (μM) T. brucei” value in assay [1] amounted to 0.005 µM. Further, in assay [2] (setting [3]), the IC50 worked out at 0.003 µM.
In the same order, the values of `CCN(CC)Cc1cccc(-c2cc(Cl)c([S+](=O)([O-])Nc3c(CC(C)C)nn(C)c3C)c(Cl)c2)c1` [DDD99747] are 0.067 µM and 0.008 µM.
The matching figures for `CCN(CC)Cc1cccc(-c2ccc([S+](=O)([O-])Nc3c(CC(C)C)nn(C)c3C)c(Cl)c2)c1` [DDD99763]: 0.053 µM and 0.007 µM.
With `Cc1cc(CN(C)C)cc(-c2ccc([S+](=O)([O-])Nc3c(CC(C)C)nn(C)c3C)cc2)c1` [DDD99817], the “ED50 (μM) T. brucei” value in assay [1] was 0.047 µM. Moreover, the IC50 in assay [2] (setting [3]) worked out at 0.014 µM.
The matching figures for `Cc1cc([S+](=O)([O-])Nc2c(CC(C)C)nn(C)c2C)ccc1-c1cccc(CN(C)C)c1` [DDD99819]: 0.043 µM and 0.008 µM.
Regarding `Cc1c(N[S+](=O)([O-])c2ccc(-c3cccc(CN(C)C)c3)c(C(F)(F)F)c2)c(CC(C)C)nn1C` [DDD99822], the “ED50 (μM) T. brucei” value in assay [1] was determined as 0.051 µM. In addition, the half-inhibitory concentration (IC50) in assay [2] (setting [3]) came to 0.006 µM.
